Experimental data taken from patent US9603896B2, “Peptide compounds and methods of production and use thereof” (priority 2012, dated 2017).
Square brackets hold non-standard residues; d marks the D form. Ends that are not written are not given here. Peptide text beside a SMILES is read from it. AEEA = NCCOCCOCC(=O)O

Legend:
[1] = in vivo; settings: rat, iv, 20 mg/kg
Description: The purpose of this example was to assess the pharmacokinetics, distribution, and excretion of ^14C-BCC03-5RMP (SEQ ID NO:23) following a single intravenous administration to male rats. Pharmacokinetic, excretion, and distribution profiles of ^14C-BCC03-5RMP-derived radioactivity were examined in male Sprague Dawley rats following a single intravenous administration of ^14C-BCC03-5RMP (20 mg/kg; 125 μCi/kg). ^14C-BCC03-5RMP was formulated in 5% (v:v) dextrose in water, pH 5.5 and was administered at a dose volume of 5 mL/kg. For assessment of pharmacokinetics of total radioactivity (Group 1), blood was collected at 0.25, 0.5, 1, 2, 4, 8, 24, 48, and 72 hours postdose. For assessment of excretion profiles, urine was collected from 0-8 and 8-24 hours postdose, and at 24-hour intervals through 168 hours postdose. Feces was collected at 24-hour intervals through 168 hours postdose. For assessment of distribution profiles, one animal/time point was sacrificed at 0.25, 1, 4, 24, and 72 hours postdose, and the carcasses were prepared for quantitative whole-body autoradiography (QWBA). Concentrations of radioactivity in whole blood, plasma, urine, feces (after oxidation), cage rinse, cage wash, and carcass were determined by liquid scintillation counting (LSC). Tissue concentrations were calculated by interpolation from each standard curve using MCID™ analysis software (InterFocus Imaging Ltd Corp., UK). Pharmacokinetic parameters for total radioactivity in blood and plasma were calculated using WinNonlin Professional Edition (version 5.2, Pharsight Corporation, St. Louis, Mo.).

[2] = tested on: human corneal epithelial cell (HCEC); experiment: HCEC chemotaxis, modified Boyden chemotaxis chamber assay; format: cell-based; settings: for migration of HCECs vs buffer control: 120-146QH at 10^−4, 10^−6, 10^−8, 10^−10 M, 120-146QR at 10^−6, 10^−8 M, HB-EGF 50 ng/ml, rCAP37 250 ng/ml, 3 hours at 37° C; for migration compared with the whole CAP37 protein: 120-146QH at 10^−6 M and 10^−8M
Description: The effect of buffer control (0.1% BSA in Gey's buffer), heparin binding-epidermal growth factor (HB-EGF, 50 ng/ml), recombinant CAP37 (rCAP37, 250 ng/ml), 120-146QH (10^−12M, 10^−10 M, 10^−8 M, 10^−6M, and 10^−4M,) and 120-146QR (10^−10M, 10^−8M, 10^−6M, and 10^−4M) on HCEC chemotaxis was determined by the modified Boyden chemotaxis chamber method. HCEC chemotaxis was measured in response to HB-EGF, rCAP37, and peptides 120-146QH (SEQ ID NO:29) and 120-146QR (SEQ ID NO:28) after incubation for 3 hours at 37° C. Chemotaxis is expressed as a percent migration. The buffer control (no chemoattractant) is arbitrarily assigned the value of 100% migration. Data are expressed as means±SEM and are calculated from 6 observations for each test point. **P<0.01 by Wilcoxon signed-rank test as compared to controls.
Chemotaxis assays were performed using the modified Boyden chemotaxis chamber assay. Peptide 120-146QH was used at 10^−4 M, 10^−6 M, 10^−8 M, 10^−10 M, and 10^−12 M, and peptide 120-146QR was used at 10^−4 M, 10^−6M, 10^−8M, and 10^−10 M.

[3] = tested on: Acinetobacter baumannii ATCC® BAA-747™; experiment: In vitro bactericidal assay (CFU remaining, log reduction); format: cell-based; settings: 60 minutes, peptides up to 25 μM, gentamicin 4 μg/ml
Description: (§1) The three peptide compounds BCC01-5RMP (SEQ ID NO:21), BCC02-5RMP (SEQ ID NO:22), and BCC03-5RMP (SEQ ID NO:23) were assayed for in vitro bactericidal activity against Pseudomonas aeruginosa, Escherichia coli, Salmonella typhimurium, and Acinetobacter baumannii. The starting inoculum for all experiments was 1×10^6 colony forming units (CFU)/ml. The CFU remaining at the end of 60 to 180 minute incubation was determined, and the data plotted as a log reduction in CFU/ml.
(§2) For FIGS. 10-13, in vitro bactericidal assays were performed using a starting inoculum of 1×10^6 CFU/ml of the bacterial suspension. The CFU remaining at the end of the 60-180 minute incubation was determined, and the data was plotted as log reduction in CFU/ml.
(§3) In particular, each of the test peptides (CAP37 peptides 120-146WR, 120-146WH, and 95-122 (SEQ ID NOs: 30, 31, and 26, respectively)) was used at 25, 12.5, 6.25, and 3.12 μM. Gentamicin was used at 4 μg/ml. 1×10^6/ml Acinetobacter baumannii ATCC® BAA-747″ or Pseudomonas aeruginosa ATCC® 27853™ (American Type Culture Collection, Manassas, Va.) were incubated with the peptides, negative buffer control (tryptone saline), and positive control gentamicin at pH 5.5 or 7.2. A 60 minute incubation was used for Acinetobacter baumannii ATCC® BAA747™, while a 180 minute incubation was used for Pseudomonas aeruginosa ATCC® 27853™. 50 μl aliquots were plated out on agar plates and incubated overnight. Colony forming units were counted after overnight incubation and CFU/ml calculated.

[4] = tested on: Pseudomonas aeruginosa ATCC® 27853™; format: cell-based; settings: gentamicin 4 μg/ml
Description: as §1, with “The starting inoculum for all experiments was 1×10^6 colony forming units (CFU)/ml.” left out
Tables 4-6 show the results of various peptides and peptide compounds against P. aeruginosa and E. coli strains. Tables 4 and 5 show the results of an investigation of the effects of peptide or peptide compounds BCC03-5RMP (SEQ ID NO:23), BCC03-MP (SEQ ID NO:24) and BCC03-5R (SEQ ID NO:20) against P. aeruginosa ATCC® strain 27853™ and E. coli ATCC® strain 25922™ (American Type Culture Collection, Manassas, Va.). […] Table 6 compares the activity of several other compounds, including the “5R” versions of BCC01, i.e., SEQ ID NO:18 (which comprises SEQ ID NO:1 with five additional arginines), the “5R” version of BCC02 (i.e., SEQ ID NO:19, which comprises SEQ ID NO:2 with five additional arginines), and BCC03-5RMP (SEQ ID NO:23), and BCC03-MP (SEQ ID NO:24, i.e., without the five additional R residues). The data generally indicate the superiority of BCC03-5RMP (SEQ ID NO:23) against E. coli, and the superiority of the 5R or 5RMP versions of the peptide over the “AEEA only” peptide against P. aeruginosa.
as §2, §3
For FIG. 14, 1×10^6/ml Pseudomonas aeruginosa ATCC® 27853™ were incubated with each of the test peptides (CAP37 peptides 120-146WR, 120-146WH, 120-146QR, 120-146QH, 120-146QR-5RMP, and 120-146QH-5RMP (SEQ ID NOs: 30, 31, 28, 29, 32, and 33, respectively)) at 150, 75, and 37.5 μg/ml, or negative buffer control (tryptone saline), for 180 minutes at pH 5.5. 50 μl aliquots were plated out on agar plates and incubated overnight. Colony forming units were counted after overnight incubation and CFU/ml calculated.

Compound: CC[C@H](C)[C@H](NC(=O)[C@H](CC(C)C)NC(=O)[C@H](C)NC(=O)CNC(=O)CNC(=O)[C@H](CS)NC(=O)[C@H](Cc1ccccc1)NC(=O)[C@H](Cc1c[nH]cn1)NC(=O)[C@H](CCCNC(=N)N)NC(=O)CNC(=O)[C@H](CCC(N)=O)NC(=O)[C@H](CC(N)=O)NC(=O)[C@H](CCCNC(=N)N)NC(=O)[C@H](CCCNC(=N)N)NC(=O)[C@H](CCCNC(=N)N)NC(=O)[C@H](CCCNC(=N)N)NC(=O)COCCOCCNC(=O)COCCOCCN)C(=O)N[C@@H](Cc1c[nH]cn1)C(=O)N[C@@H](C)C(=O)N[C@@H](CCCNC(=N)N)C(=O)N[C@@H](Cc1ccccc1)C(=O)N[C@H](C(=O)N[C@@H](CCSC)C(=O)N[C@H](C(=O)N[C@@H](C)C(=O)N[C@@H](C)C(=O)N[C@@H](CO)C(=O)N[C@@H](CO)C(=O)N[C@@H](Cc1ccccc1)C(=O)N[C@@H](CCC(N)=O)C(=O)N[C@@H](CCCNC(=N)N)C(=O)O)[C@@H](C)O)C(C)C [^14C-BCC03-5RMP] (H-[AEEA][AEEA]RRRRNQGRHFCGGALIHARFVMTAASSFQR-OH; N-terminus and C-terminus assumed)
- blood plasma ratio ([1]; male, Sprague Dawley, total radioactivity): 0.689 to 3.11
- C0, Radio-equivalents in blood [1]: 38500 ± 2160 ng eq/g
- C0, Radio-equivalents in plasma [1]: 51800 ± 4160 ng eq/g
- Clearance of radioactivity, plasma relative to blood [1]: approximately 2 fold
- blood:brain barrier passage of radioactivity [1]: crossed the blood:brain barrier
- blood:testis barrier passage of radioactivity [1]: crossed the blood:testis barrier
- exposure (AUC0-∞), blood relative to plasma [1]: approximately 2 fold
- tissue:plasma concentration ratios, majority of tissues [1]: greater than one
- tissue:plasma concentration ratios, renal, adrenal, pancreatic, and pituitary tissues [1]: up to 103
- volume of distribution of total radioactivity, blood relative to plasma [1]: approximately 1.6 fold

Compound: GTRCQVAGWGSQHSGGRLSRFPRFVNV [Peptide 120-146QH]
- migration of HCECs vs buffer control [2]: significantly increase migration
- migration compared with the whole CAP37 protein [2]: comparable to the migration obtained with the whole CAP37 protein

Compound: GTRCQVAGWGSQRSGGRLSRFPRFVNV [Peptide 120-146QR]
- migration of HCECs vs buffer control [2]: significantly increase migration
- migration compared with the whole CAP37 protein [2]: less than the migration obtained with the whole protein

Compound: gentamicin [reference compound]
- bactericidal activity against Acinetobacter baumannii ([3]; pH 5.5): unable to kill the bacteria
- bactericidal activity against Acinetobacter baumannii ([3]; pH 7.2): active against the bacteria
- activity against P. aeruginosa ([4]; 120-146WR at 25 μM): highly active
- reduction of CFU/ml ([4]; pH 5.5, 180 minutes, highest concentrations of peptides (25 μM)): 2 logs
